{"source": "patent US8784910B2", "about": "“Antimicrobial compositions” (Lonza Inc., priority 2002, dated 2014)", "key": {"[1]": {"tested_on": "S. aureus, P. aeruginosa, and E. coli", "test": "Mixed bacterial challenge of preserved GMS cream (Example 6)", "format": "cell-based", "method": "Each anionic shampoo sample in FIGS. 1-3 were tested as follows. […] Each stab was then washed with 3 mL of sterile 0.85% saline solution. The washes of the 3 stabs were pooled together to form an organism mixture. The absorbance of the organism mixture at 530 nm was adjusted to about 1.00 by adding saline. The spectrometer was calibrated with a saline blank. A 5 mL aliquot of the organism mixture was mixed together to produce the standardized mixed bacterial solution. Then, 40 g of each shampoo sample was inoculated with 0.2 mL of the standardized mixed bacterial solution and mixed. 1 g of the mixture was added to a sterile 20×150 mm screw cap test tube. 9 mL of sterile D/E neutralizer broth was added to the test tube and mixed to form a 10^−1 dilution. Serial dilutions were prepared through to a 10^−6 dilution with phosphate buffered water. The serial dilutions were plated onto Tryptic Soy Agar and incubated for 2 days at about 35 EC. Bacteria counts were performed after 21 days. Each cream sample in Table 5 below was tested by the procedure described in Example 1. A glyceryl monostearate (GMS) cream as described in Table 3 below was prepared as follows. The polyoxyethylene glyceryl monostearate, glyceryl monostearate, cetearyl alcohol, and myristyl propionate were mixed and heated to 60 EC in a first container. The glycerin and sterile deionized water were mixed and heated to 60 EC in a second container. The solution in the first container was poured into the second container. The second container was maintained at 60 EC for 10 minutes. The solution in the second container was allowed to cool. The pH of the solution was adjusted to pH 7 with sodium hydroxide to yield the GMS cream. The cream samples shown in Table 6 below were prepared by mixing the appropriate amounts of the preservatives and the GMS cream and heating the mixture to 50 EC for 10-15 minutes."}, "[2]": {"tested_on": "Staphylococcus aureus (ATCC #6538)", "test": "Minimum Inhibitory Concentration (MIC), autodilutor, nutrient broth, 96 well plates (Example 8)", "format": "cell-based", "details": "Staphylococcus aureus, ATCC6538; 72 hours at 32 degree Celsius, approximately 10^6 cfu/g, visual turbidity; read-out: MIC for S. Aureus", "method": "The Minimum Inhibitory Concentration (MIC) of the preservative mixtures was tested. The MIC is the lowest concentration of an ingredient that will inhibit the growth of an organism. This study was conducted using the Hamilton Micro Lab AT Plus Autodilutor Liquid handling System. The programs for the auto-dilutor were based on Lonza's Standard Application Method SAPM#412-01-1. The Hamilton Autodilutor was used to dilute the starting concentrations of the preservative combination by 50% using nutrient broth in 96 well micro titer plates and also to inoculate the microorganism in the test samples. This preservatives tested were Isocil™ (a blend of methyl isothiazolinone and methyl-chloro-isothiazolinone), Benzocil™ (benzisothiazolinone) and Lonzagard™ (benzethonium chloride), all of which are available from Lonza Inc. of Fair Lawn, N.J., in various concentrations and combinations with cinnamaldehyde. Controls were also included in each test plate. […] Results were determined by checking for growth in the test samples versus the control wells on each plate (visual determination of turbidity in the wells). […] Synergism values for the Isocil™/cinnamaldehyde and Benzocil™/cinnamaldehyde combinations were calculated from the MIC values reported in Table 11 by the method described in Kull, supra, referred to above, and are set forth in Tables 12 and 13, below."}}, "data": [{"compound": "O=CC=Cc1ccccc1", "note": "[Cinnamaldehyde, cinnamaldehyde]", "values": [{"measurement": "S. aureus, P. aeruginosa, and E. coli Day 0", "setting": "[1]; 0.10% in GMS cream pH 7, Day 0", "result": "3.0 × 10^7 cfu/g"}, {"measurement": "S. aureus, P. aeruginosa, and E. coli Day 7", "setting": "[1]; 0.10% in GMS cream pH 7, Day 7", "result": "4.0 × 10^4 cfu/g"}, {"measurement": "S. aureus, P. aeruginosa, and E. coli Day 14", "setting": "[1]; 0.10% in GMS cream pH 7, Day 14", "result": "9.3 × 10^5 cfu/g"}, {"measurement": "S. aureus, P. aeruginosa, and E. coli Day 0", "setting": "[1]; 0.25% in GMS cream pH 7, Day 0", "result": "3.0 × 10^7 cfu/g"}, {"measurement": "S. aureus, P. aeruginosa, and E. coli Day 7", "setting": "[1]; 0.25% in GMS cream pH 7, Day 7", "result": "<10", "unit": "cfu/g"}, {"measurement": "S. aureus, P. aeruginosa, and E. coli Day 14", "setting": "[1]; 0.25% in GMS cream pH 7, Day 14", "result": "<10", "unit": "cfu/g"}, {"measurement": "MIC", "setting": "[2]", "result": 125, "unit": "µg/mL"}]}]}
